Laboratory results from patent publication US10723716B2, “Alpha-helix mimetics as modulators of Abeta self-assembly” (New York University, priority 2016, dated 2020).
Entries after “also recorded” stand apart in the source; their conditions may differ.

Columns and labels:
Aβ40 [1] = target: T1, Aβ40 (Homo sapiens, UniProt P05067); experiment: Circular dichroism (CD) spectroscopy of Aβ40; format: biochemical; conditions: Aβ40, equimolar ratio
T1 construct: Cleavage of APP results in several Aβ isoforms; The predominant species are Aβ42 and Aβ40; purchased Anaspec (Fremont, Calif., USA)
T1 sequence (P05067 672-711 limits assumed): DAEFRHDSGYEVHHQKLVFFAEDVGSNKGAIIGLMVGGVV
Protocol: A second set of compounds was identified as potent inhibitors of Aβ aggregation. In contrast to ADH-41, they are negatively charged. […] The absorbance increased gradually from 0 to 6 h indicating an increase in the amount of soluble oligomers of Aβ42. […] A time-dependent increase in the amount of the A11-sensitive Aβ42 oligomeric structures was reflected in the progressive enhancement in the chemiluminescence intensity of the dots, which reached a maximum intensity around 6 h (FIG. 27g). The intensity decreased after 12 h, due to formation of fibers that are not sensitive to the A11 antibody. […] The far UV-CD spectrum of a sample of 20 μM Aβ40 transitioned from that of a random coil to a β-sheet conformation over 24 h (FIG. 27h).
(§1) A freshly prepared stock solution of Aβ42 (500 μM) was diluted to 15 μM in phosphate buffer for CD measurements. The spectra of Aβ42 in the absence and presence of the compounds of the invention were recorded at 0.5 nm intervals from 190 to 260 nm with an averaging time of 10 sec. and an average of three repeats on a Aviv Stopped Flow CD Spectropolarimeter (Model 202SF).

Aβ40 [2] = target: T1, Aβ40; experiment: ThT-based kinetic assay of Aβ40 aggregation; format: biochemical; conditions: equimolar ratio
Protocol: Kinetic assays were conducted on a FlexStation 3 Multi-Mode Microplate reader from Molecular Devices (Sunnyvale, Calif., USA). Experiments were conducted in triplicate in a 96-well plate with a final volume of 200 μL per well. Every measurement was an average of 50 readings. The aggregation of an amyloidogenic peptide (Aβ40, Aβ42, or IAPP) was initiated by the addition of the peptide from a stock solution (in DMSO, 0.5-1 mM) to phosphate buffer. The final concentration of each peptide was different based on their aggregation. The stoichiometry of ThT dye for each peptide was 0.5:1 (ThT:peptide). Peptide aggregation was monitored by ThT fluorescence (λex=445 nm and λem=485 nm). The blank sample contained all the components of the peptide samples except the peptide. The sample data were processed by subtracting the fluorescence of the blank sample. The fluorescence intensity data was then normalized by setting the maximum value to 1.
Kinetic assays in the presence of the compounds of the invention were conducted under the same conditions. The small molecules were added from a stock solution (1 mM or 10 mM in DMSO) to keep the final concentration of DMSO less than 1.0% (v/v). […]
Kinetic profiles were processed using Origin (version 9.1). […] Each run was fit independently to extract the t50 (time required to reach 50% of the maximum fluorescence intensity). […]

Aβ40 [3] = target: T1, Aβ40; experiment: Transmission electron microscopy (TEM) of Aβ40; format: biochemical
Aβ42 = target: T2, Aβ42 (Homo sapiens, UniProt P05067); experiment: Circular dichroism (CD) spectroscopy of Aβ42; format: biochemical; conditions: 15 μM Aβ42, equimolar ratio, after 24 h
T2 construct: Cleavage of APP results in several Aβ isoforms; The predominant species are Aβ42 and Aβ40; purchased Anaspec (Fremont, Calif., USA)
T2 sequence (P05067 672-713 limits assumed): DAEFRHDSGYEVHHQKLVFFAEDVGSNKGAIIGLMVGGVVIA
Protocol: as §1

Aβ12-28 = target: T3, Aβ12-28 (Homo sapiens, UniProt P05067); experiment: Circular dichroism (CD) spectroscopy of Aβ12-28; format: biochemical; conditions: Aβ12-28, 20% TFE, equimolar ratio
T3 construct: Aβ12-28, a well-characterized subdomain of Aβ42; purchased Anaspec (Fremont, Calif., USA)

[4] = DLS and UV-Vis probe of colloidal aggregation of the compound; format: physicochemical
Protocol: UV-Vis was employed to probe the chemical aggregation of ADH-41 under kinetic assay conditions. The measurements were carried out on a double beam Carry 100 Bio spectrophotometer (Agilent Technologies, Santa Clara, Calif.) controlled by Cary WinUV software (version=3.0).
Dynamic light scattering (DLS) and ultraviolet-visible (UV-Vis) spectroscopy was employed to probe the micelle forming capacity of ADH-41.

Aβ40 [5] = target: T1, Aβ40; experiment: Isothermal titration calorimetry (ITC); format: binding
Protocol: ITC experiments were performed in a NANO-ITC (TA instruments, New Castle, Del., USA). […] The heat associated with each injection was calculated by integrating each heat burst curve using NanoAnalyze software (New Castle, Del., USA). […] No parameter was constrained during the fitting. The data were extracted from the best fit after 10,000 iterations.

N2a cells = experiment: Confocal fluorescence microscopy, cellular uptake; format: cell-based, mouse; conditions: 24 h incubation
Protocol: N2a cells were seeded at a density of 5×10^4 cells/well in 500 μL complete medium in 4-chambered 35 mm glass bottom Cellview cell culture dishes (Greiner Bio-One, Monroe, N.C., USA). […] For mitochondrial colocalization experiments, 50 nM MitoTracker Red FM or MitoTracker Green FM (Thermo Fisher Scientific, Waltham, Mass., USA) was added to the chambers and incubated for 15 min. Thereafter, the medium was removed, the cells were washed with PBS to remove any extracellular peptide, inhibitor or organelle marker, and 300 μL phenol red- and serum-free medium was added to each chambers of the cell culture dish. Imaging was done on an Olympus Fluoview FV1000MPE Confocal/2—Photon microscope, using a 63× Plan-Apo/1.3 NA oil immersion objective with DIC capability. Image processing was done using the Fiji image processing software according to known methodology (Schindelin, J.; Arganda-Carreras, I.; Frise, E.; Kaynig, V.; Longair, M.; Pietzsch, T.; Preibisch, S.; Rueden, C.; Saalfeld, S.; Schmid, B.; Tinevez, J. Y.; White, D. J.; Hartenstein, V.; Eliceiri, K.; Tomancak, P.; Cardona, A. Nat. Methods 2012, 9, 676-682).

Row | SMILES | β-sheet formation of Aβ40 (far UV-CD) (Aβ40 [1]) | conformation of Aβ40 (far UV-CD) (Aβ40 [1]; stable after 48 h) | effect on Aβ40 aggregation (ThT) (Aβ40 [2]) | fiber formation of Aβ40 seen by TEM (Aβ40 [3]; Aβ40 incubated with ADH-41, after 5 days) | aggregates of Aβ40 seen by TEM (Aβ40 [3]; equimolar ratio) | Aβ40 species seen by TEM (Aβ40 [3]; substoichiometric ratio 1:0.1 (Aβ40:ADH-41)) | β-sheet formation of Aβ42 (far UV-CD) (Aβ42) | conformation of Aβ12-28 (far UV-CD) (Aβ12-28) | concentration range over which absorbance is linear ([4]; absorbance at 351 nm, phosphate buffer pH 7.4) [µM] | diameter (from volume) of compound particles by DLS ([4]; phosphate buffer (150 mM KCl, 50 mM NaPi, pH 7.4), 20° C.) | Kd (Aβ40 [5]) [nM] | cell permeability (N2a cells)
1 | COC(=O)c1ccc(NC(=O)c2ccc(NC(=O)c3ccc(NC(=O)c4ccc([N+](=O)[O-])c(OCC(C)C)n4)c(OCc4ccccc4)n3)c(OCC(=O)O)n2)c(OCC(=O)O)n1 [ADH-31] | no β-sheet formation was observed | adopts an α-helical conformation | – | – | – | – | – | – | – | – | – | –
2 | COC(=O)c1ccc(NC(=O)c2ccc(NC(=O)c3ccc([N+](=O)[O-])c(OCc4ccccc4)n3)c(OCCCN)n2)c(OCCCN)n1 [ADH-41] | – | – | decreased significantly; also recorded: completely arrested | scant evidence of fiber formation | No aggregates were visible | short protofibrils | No formation of β-sheet structure | strong α-helical conformation | 10 to 100 | below 10 nm | 700 ± 100 | good cell permeability
